Patent US20160089348A1, “USE OF AN S1P RECEPTOR AGONIST” (priority 2009, published 2016)

Columns and labels:
[1] = system: patients with relapsing-remitting MS (RRMS); assay: MRI lesion measures (Gd-enhancing, T2, T1 hypointense lesions) in clinical study of daily oral fingolimod vs placebo; assay type: in vivo, human; settings: for T1 hypointense lesion volume, months 0-24 - % change, Mean ± SD / T1 hypointense lesion volume, months 0-24 - % change, Median (range) / T2 lesion volume, months 0-24 - % change, Mean ± SD / T2 lesion volume, months 0-24 - % change, Median (range) / Patients free from new or enlarged T2 lesions, months 0-24 - (%) / Patients free from new or enlarged T2 lesions, months 0-24 - no.: RRMS patients
Description: Annualized relapse rate (ARR) over 24 months (primary endpoint) and time to disability progression (key secondary endpoint) is assessed in patients with relapsing-remitting MS (RRMS). Patients aged 18-55 years with an Expanded Disability Status Scale score 0-5.5, relapse in the previous year (or ≧2 in the previous 2 years) are randomized to daily oral fingolimod 1.25 mg or 0.5 mg, or placebo. […] The brain volume changes for months 0 to 12 is measured using SIENA software.

[2] = system: patients with relapsing-remitting MS (RRMS); assay: Brain volume change (brain atrophy) by MRI using SIENA software in clinical study of daily oral fingolimod vs placebo; assay type: in vivo, human; settings: for Brain volume, Percent change from Month 12 to Month 24, Mean (SD) / Brain volume, Percent change from Month 12 to Month 24, Median / Brain volume, Percent change from baseline to Month 24, Mean (SD) / Brain volume, Percent change from baseline to Month 24, Median / Brain volume, Percent change from baseline to Month 12, Mean (SD) / Brain volume, Percent change from baseline to Month 12, Median / Brain volume, Percent change from baseline to Month 6, Mean (SD) / Brain volume, Percent change from baseline to Month 6, Median: RRMS patients
Description: Annualized relapse rate (ARR) over 24 months (primary endpoint) and time to disability progression (key secondary endpoint) is assessed in patients with relapsing-remitting MS (RRMS). Patients aged 18-55 years with an Expanded Disability Status Scale score 0-5.5, relapse in the previous year (or ≧2 in the previous 2 years) are randomized to daily oral fingolimod 1.25 mg or 0.5 mg, or placebo. […]

[3] = fingolimod 0.5 mg daily oral, N = 346 with MRI data
[4] = fingolimod 0.5 mg daily oral, N = 368 with MRI data
[5] = fingolimod 0.5 mg daily oral, N = 425
[6] = fingolimod 1.25 mg daily oral, N = 317 with MRI data
[7] = fingolimod 1.25 mg daily oral, N = 343 with MRI data
[8] = fingolimod 1.25 mg daily oral, N = 429
[9] = both fingolimod groups (1.25 mg, 0.5 mg), at 6, 12 and 24 months
[10] = FTY720 0.5 mg daily oral, n 356
[11] = FTY720 0.5 mg daily oral, n 357
[12] = FTY720 0.5 mg daily oral, n 383
[13] = FTY720 0.5 mg daily oral, n 395
[14] = FTY720 1.25 mg daily oral, n 327
[15] = FTY720 1.25 mg daily oral, n 334
[16] = FTY720 1.25 mg daily oral, n 371
[17] = FTY720 1.25 mg daily oral, n 384
[18] = fingolimod-treated patients, baseline to month 24

In the case of `CCCCCCCCc1ccc(CCC(N)(CO)CO)cc1.Cl` [fingolimod, 2-amino-2-[2-(4-octylphenyl)ethyl]propane-1,3-diol], the “T1 hypointense lesion volume, months 0-24 - % change, Mean ± SD” value [1, 3] is reported as 8.8 ± 76.27%, the “T1 hypointense lesion volume, months 0-24 - % change, Median (range)” value [1, 3] is reported as 0.00 (−100.0-1037.1) % and the “T2 lesion volume, months 0-24 - % change, Mean ± SD” value [1, 4] is reported as 10.6 ± 103.46%. The “T2 lesion volume, months 0-24 - % change, Median (range)” value [1, 4] was −1.69 (−100.0-1828.5) %, the “Patients free from new or enlarged T2 lesions, months 0-24 - (%)” value [1, 5] was 50.5% and the “Patients free from new or enlarged T2 lesions, months 0-24 - no.” value [1, 5] was 187. For the same compound, the “T1 hypointense lesion volume, months 0-24 - % change, Mean ± SD” value [1, 6] was 12.2 ± 85.49%, the “T1 hypointense lesion volume, months 0-24 - % change, Median (range)” value [1, 6] was −0.20 (−100.0-888.4) % and the “T2 lesion volume, months 0-24 - % change, Mean ± SD” value [1, 7] was 1.6 ± 30.71%. For the same compound, the “T2 lesion volume, months 0-24 - % change, Median (range)” value [1, 7] was −3.10 (−68.2-221.5) %, the “Patients free from new or enlarged T2 lesions, months 0-24 - (%)” value [1, 8] was 51.9% and the “Patients free from new or enlarged T2 lesions, months 0-24 - no.” value [1, 8] was 175. For the same compound, the “Proportions of patients free from new or enlarged T2 lesions versus placebo” value ([1]; both fingolimod doses, over 24 months) was “greater proportions of patients are free from these lesions”, the “Gd-enhancing lesions versus placebo group” value [1, 9] was “significantly fewer Gd-enhancing lesions than those in the placebo group” and the “Patients free from Gd-enhancing lesions versus placebo” value [1, 9] was “proportionately more patients are free from Gd-enhancing lesions”. For the same compound, the “New or enlarged T2 lesions versus placebo” value ([1]; fingolimod 0.5 mg or 1.25 mg, over 24 months) was “Fewer new or enlarged T2 lesions”, the “Volume of T2 lesions, change from baseline to month 24” value ([1]; fingolimod-treated patients, increases with placebo) was “decreases” and the “Brain volume, Percent change from Month 12 to Month 24, Mean (SD)” value [2, 10] was −0.370 (0.8073) %. For the same compound, the “Brain volume, Percent change from Month 12 to Month 24, Median” value [2, 10] was −0.340%, the “Brain volume, Percent change from baseline to Month 24, Mean (SD)” value [2, 11] was −0.843 (1.3120) % and the “Brain volume, Percent change from baseline to Month 24, Median” value [2, 11] was −0.670%. For the same compound, the “Brain volume, Percent change from baseline to Month 12, Mean (SD)” value [2, 12] was −0.500 (1.0509) %, the “Brain volume, Percent change from baseline to Month 12, Median” value [2, 12] was −0.380% and the “Brain volume, Percent change from baseline to Month 6, Mean (SD)” value [2, 13] was −0.224 (0.8131) %. The “Brain volume, Percent change from baseline to Month 6, Median” value [2, 13] was −0.140%, the “Brain volume, Percent change from Month 12 to Month 24, Mean (SD)” value [2, 14] was −0.423 (0.8284) % and the “Brain volume, Percent change from Month 12 to Month 24, Median” value [2, 14] was −0.380%. The “Brain volume, Percent change from baseline to Month 24, Mean (SD)” value [2, 15] was −0.885 (1.3857) %, the “Brain volume, Percent change from baseline to Month 24, Median” value [2, 15] was −0.700% and the “Brain volume, Percent change from baseline to Month 12, Mean (SD)” value [2, 16] was −0.438 (1.0792) %. The “Brain volume, Percent change from baseline to Month 12, Median” value [2, 16] was −0.300%, the “Brain volume, Percent change from baseline to Month 6, Mean (SD)” value [2, 17] was −0.209 (0.8649) % and the “Brain volume, Percent change from baseline to Month 6, Median” value [2, 17] was −0.120%. For the same compound, the “Reduction in atrophy rate versus placebo” value [2, 18] was 30% and the “Reduction in brain volume versus placebo group” value [2, 18] was “significantly less reduction in brain volume than those in the placebo group”.
